Measured values reported in patent US20050107455A1, “Novel tricycloimidazoline derivatives method for production and use thereof as medicaments” (priority 2002, published 2005).
Where a name gives a salt, the structure may show the parent alone.

How the values were obtained:
[1] = biological target: T1, human alpha-2A adrenergic receptors (Homo sapiens, UniProt P08913); assay: Measurement of the activation of the adrenergic alpha-2 receptors (GTPγS response on membrane preparations); format: biochemical; conditions: GTPγS response versus maximum stimulation by (−)-adrenalin, negative = inverse agonist, read-out: Intrinsic activity % stimulated
T1 construct: host or cells: membrane preparations
T1 sequence (P08913 1-465): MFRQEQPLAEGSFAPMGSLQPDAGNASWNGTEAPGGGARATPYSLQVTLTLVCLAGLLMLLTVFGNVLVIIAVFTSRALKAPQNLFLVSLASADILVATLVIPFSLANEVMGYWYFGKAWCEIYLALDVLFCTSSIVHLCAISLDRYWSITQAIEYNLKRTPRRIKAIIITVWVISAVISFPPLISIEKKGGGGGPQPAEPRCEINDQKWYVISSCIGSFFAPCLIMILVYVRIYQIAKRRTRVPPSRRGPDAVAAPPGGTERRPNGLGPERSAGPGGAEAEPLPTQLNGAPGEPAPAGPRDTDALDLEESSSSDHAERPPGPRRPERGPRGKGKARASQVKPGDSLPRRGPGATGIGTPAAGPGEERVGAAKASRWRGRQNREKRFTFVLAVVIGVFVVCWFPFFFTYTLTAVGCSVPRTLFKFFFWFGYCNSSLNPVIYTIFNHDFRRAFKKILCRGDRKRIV
Description: Measurement of the Activation of the Adrenergic Alpha-2 Receptors:
The responses as GTPγS are performed on membrane preparations in 20 mM HEPES (pH=7.4) with 30 μM of GDP, 100 mM of NaCl, 3 mM of MgCl2 and 0.2 mM of ascorbic acid. The maximum stimulation of the GTPγS is determined in the presence of […] of (−)-adrenalin and calculated versus the basal GTPγS response. The results are expressed versus either adrenalin or RX 81105-9. Under these conditions, the compounds of the invention are distinguished from most of the compounds of the prior art of the 4,5-dihydro-1H-imidazole and/or 1H-imidazole type in that they behave rather as inverse agonists on human alpha-2A adrenergic receptors (cf. above table).

[2] = biological target: T2, human alpha-2A receptor (Homo sapiens, UniProt P08913); assay: Binding to the adrenergic alpha-2A receptor, [3H]RX 821002, C6 cell membranes; conditions: membranes of C6 cells expressing human alpha-2A; 2 nM [3H]RX 821002; 30 minutes at 25° C.; read-out: Affinity (pKi) Alpha-2A (converted)
T2 construct: expressed in transfected cells; host or cells: C6 cells (permanent expression), membranes
T2 sequence (P08913 1-465): T1 sequence (P08913 1-465)
Description: (§1) Membranes of C6 cells permanently expressing either the human alpha-2A or alpha-2B receptor are prepared in Tris-HCl (pH=7.6). The binding tests are performed with 2 nM [^3H]RX 821002. The incubation medium is composed of 0.4 ml of cell membranes (10 μg of proteins), 0.05 ml of radioligand and 0.05 ml of test product or of phentolamine (10 μM) to determine the nonspecific binding. The reaction is quenched after incubation for 30 minutes at 25° C. by adding 3 ml of cold 50 mM Tris-HCl (pH=7.6), followed by filtration through Whatman GF/B filters using a Brandel. The Ki values are calculated according to the equation Ki=IC50/(1+C/Kd) in which C is the concentration and Kd the dissociation constant, pKi=−logKi. Under these conditions, it is seen that the compounds of the invention have high affinity for the receptors of the human adrenergic alpha-2A subtype, whereas they have little or no affinity for the receptors of the human adrenergic alpha-2B subtype (cf. above table). This unexpected receptor selectivity of the compounds of the invention, compared with the compounds of the prior art, may have a favorable impact on their tolerance.

[3] = tested on: Scopolamine-induced memory deficiency; assay: Test of scopolamine-induced memory deficiency (passive avoidance); format: in vivo; conditions: rats
Excerpt: Test of Scopolamine-Induced Memory Deficiency:
Scopolamine has amnesiant properties in man and animals. Thus, its administration to a healthy person causes certain symptoms similar to what is observed in Alzheimer's disease. Scopolamine-induced memory deficiency is thus used as an experimental pharmacological model of this pathology. Scopolamine reduces the capacity for acquisition, memorization and recall in a test of passive avoidance in rats. […] The administration of scopolamine suppresses this reticence, and the test compounds counter the effect of scopolamine. The experimental protocol used is described in Psychopharmacol. 1992, 106, 26-30.

[4] = biological target: T3, human alpha-2B receptor (Homo sapiens, UniProt P18089); assay: Binding to the adrenergic alpha-2B receptor, [3H]RX 821002, C6 cell membranes; conditions: membranes of C6 cells expressing human alpha-2B; 2 nM [3H]RX 821002; 30 minutes at 25° C.; read-out: Affinity (pKi) Alpha-2B (converted)
T3 construct: expressed in transfected cells; host or cells: C6 cells (permanent expression), membranes
T3 sequence (P18089 1-450): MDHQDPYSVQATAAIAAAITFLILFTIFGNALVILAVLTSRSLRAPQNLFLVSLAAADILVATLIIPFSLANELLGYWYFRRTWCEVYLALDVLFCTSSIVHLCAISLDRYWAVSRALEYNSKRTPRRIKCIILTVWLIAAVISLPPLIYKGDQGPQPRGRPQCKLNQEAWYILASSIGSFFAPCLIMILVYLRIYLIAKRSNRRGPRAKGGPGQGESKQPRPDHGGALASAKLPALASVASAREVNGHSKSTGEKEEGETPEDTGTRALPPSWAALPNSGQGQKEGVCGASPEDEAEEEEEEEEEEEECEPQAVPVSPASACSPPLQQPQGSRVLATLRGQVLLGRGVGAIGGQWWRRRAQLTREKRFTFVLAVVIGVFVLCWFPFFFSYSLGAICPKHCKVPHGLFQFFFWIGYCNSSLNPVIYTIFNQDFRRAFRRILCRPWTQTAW
Description: as §1

melting point	Emax [1]	Ki [2]	Ki [4]	SMILES	further results
173 to 175 °C				CO[C@H]1c2ccccc2C2C[C@]21C1=NCCN1 (mixture of isomers) (as salt: fumarate) [XV-1, 2-(6-Methoxy-1a,6-dihydro-1H-cyclopropa[a]-inden-6a-yl)-4,5-dihydro-1H-imidazole]	
133 to 135 °C				C[C@@H]1[C@H]2c3ccccc3C[C@@]12C1=NCCN1 (racemic) (as salt: fumarate) [XVII-2, 2-(1-exo-Methyl-1a,6-dihydro-1H-cyclopropa-[a]inden-6a-yl)-4,5-dihydro-1H-imidazole]	
	-2%	12.6 nM	316 nM	CO[C@H]1c2ccccc2C2C[C@]21C1=NCCN1 (mixture of isomers) [XV-1, 2-(6-Methoxy-1a,6-dihydro-1H-cyclopropa[a]-inden-6a-yl)-4,5-dihydro-1H-imidazole]	Scopolamine-induced memory deficiency amplitude of the effect % ([3]; dose 2.5 mg/kg i.p.): +168 (2.5) %
	-64%	3.16 nM	20 nM	C[C@@H]1[C@H]2c3ccccc3C[C@@]12C1=NCCN1 (racemic) [XVII-2, 2-(1-exo-Methyl-1a,6-dihydro-1H-cyclopropa-[a]inden-6a-yl)-4,5-dihydro-1H-imidazole]	Scopolamine-induced memory deficiency amplitude of the effect % ([3]; dose 0.63 mg/kg i.p.): +181 (0.63) %
170 to 172 °C				COC1c2ccccc2C2CC21C1=NCCN1 (single isomer, unassigned; (+)) (as salt: fumarate) [(+) -XV-1, (+)-2-(6-Methoxy-1a,6-dihydro-1H-cyclopropa[a]inden-6a-yl)-4,5-dihydro-1H-imidazole]	
	-63%	3.98 nM	> 10000 nM	COC1c2ccccc2C2CC21C1=NCCN1 (single isomer, unassigned; (+)) [(+) -XV-1, (+)-2-(6-Methoxy-1a,6-dihydro-1H-cyclopropa[a]inden-6a-yl)-4,5-dihydro-1H-imidazole]	
245 to 247 °C				c1ccc2c(c1)CC1(C3=NCCN3)CC21 (single isomer, unassigned; (-)) (as salt: hydrochloride) [(−)-XVII-1, (−)-2-(1a,6-Dihydro-1H-cyclopropa[a]inden-6a-yl)-4,5-dihydro-1H-imidazole]	
	100%			CNCC(O)c1ccc(O)c(O)c1 (single isomer, unassigned; (-)) [(−)-adrenalin, reference compound]	
177 to 179 °C				COc1cccc2c1C1C[C@@]1(C1=NCCN1)[C@H]2OC (stereo in doubt) (as salt: fumarate) [XV-1a, 2-(2,6-Dimethoxy-1a,6-dihydro-1H-cyclopropa[a]inden-6a-yl)-4,5-dihydro-1H-imidazole]	
				COc1cc2c(cc1OC)C(=O)C(CC1CCN(Cc3ccccc3)CC1)C2 (stereo not drawn) [donepezil, reference compound]	Scopolamine-induced memory deficiency amplitude of the effect % ([3]; dose 0.16 mg/kg i.p.): +67 (0.16) %
